Article PMC7730851, “Expression of Somatostatin Receptor Subtypes (SSTR-1–SSTR-5) in Pediatric Hematological and Oncological Disorders” (Molecules, 2020)
“Also recorded” adds a separate entry of the source. Like-named read-outs stand apart in the source and are kept apart here. Positions of bridges follow the written chain, without caps; N, C: chain ends. Non-standard residues stand in square brackets, D forms with d. Residues, ends and D or L forms follow the SMILES beside them.

Columns and labels:
SSTR-2 = conditions: cited from earlier work
[1] = target: somatostatin receptors (SSTR); experiment: Ligand competition assay: binding of [125I]RC-160 to membrane homogenates of pediatric solid tumor samples (Scatchard / LIGAND-PC); set-up: species or system human
Experimental: (§1) Receptor binding affinities and concentrations of SSTRs in tumor membranes were also studied. […] Biochemical specifications and parameters crucial to characterize specific binding sites were also defined. […] Various peptides structurally related or unrelated to SST were used in these studies.
(§2) The radioiodinated derivatives of the RC-160 SST analogue were prepared by the chloramine-T method and purified by reverse phase high-performance liquid chromatography (RP-HPLC) as described previously. Somatostatin receptor-binding assays were performed as described previously with some minor modifications, using in vitro ligand competition assays based on the binding of [^125I] RC-160 as a radioligand to membrane fractions of the pediatric samples. This radioiodinated ligand has been well characterized and reported previously and has high affinity for SSTR-2 and SSTR-5 [4]. Tumor membrane homogenates were incubated as competitors with 50,000–70,000 cpm radioiodinated RC-160 and 10^−12–10^−6 M nonradioactive peptides. After incubation for 2 h, the binding reactions were stopped, and the bound ligand was separated and counted in a gamma counter. The LIGAND-PC computer curve-fitting software of Munson and Rodbard was used to determine the type of receptor binding, the dissociation constant (Kd), and the maximal binding capacity of SSTRs (Bmax). […] The final binding affinities were expressed as IC50 values. Protein concentration was determined by the method of Bradford using a Bio-Rad protein assay kit (Bio-Rad Laboratories, Inc.).

SSTR-5 = conditions: cited from earlier work
[2] = test system: somatostatin receptors (SSTR); experiment: Displacement of [125I]RC-160 binding from membranes of human pediatric tumors by unlabeled peptides; conditions: for inhibition/displacement of the binding of radioiodinated RC-160: pediatric tumor membranes, competitor 10^-12-10^-6 M, concentrations as high as 1 µM; for displacement of [125I]RC-160 binding: membrane fractions of human rhabdomyosarcoma specimen, Figure 3
Experimental: as §1
Displacement of [^125I] RC-160 as a radioligand by the unlabeled SST analogs as competitor was determined.
as §2

SSTR-3 = conditions: cited from earlier work
SSTR-1 = conditions: cited from earlier work

CC(C)[C@@H]1NC(=O)[C@H](CCCCN)NC(=O)[C@@H](Cc2c[nH]c3ccccc23)NC(=O)[C@H](Cc2ccc(O)cc2)NC(=O)[C@@H](NC(=O)[C@H](N)Cc2ccccc2)CSSC[C@@H](C(=O)N[C@@H](Cc2c[nH]c3ccccc23)C(N)=O)NC1=O [[125I]RC-160] (H-[dF]CY[dW]KVCW-NH2; disulfide 2-7)
affinity for SSTR-2 (SSTR-2): high affinity | Kd ([1]; mean of seven receptor-positive pediatric tumor samples, read-out: mean dissociation constant (Kd)): 6 nM | Kd ([1]; patient 1, teratoma membranes, duplicates, read-out: SSTR Kd): 5.76 nM | Kd ([1]; patient 4, Hodgkin lymphoma membranes, duplicates, read-out: SSTR Kd): 8.01 nM | Kd ([1]; patient 5, rhabdomyosarcoma membranes, duplicates, read-out: SSTR Kd): 8.12 nM | Kd ([1]; patient 6, rhabdomyosarcoma membranes, duplicates, read-out: SSTR Kd): 4.31 nM | Kd ([1]; patient 7, hamartoma membranes, duplicates, read-out: SSTR Kd): 4.02 nM | Kd ([1]; range over seven receptor-positive pediatric tumor samples, read-out: dissociation constant (Kd), range): 4.02 to 8.12 nM | affinity for SSTR-5 (SSTR-5): high affinity

SST-14: somatostatin-14, native peptide
inhibition/displacement of the binding of radioiodinated RC-160 [2]: displaced completely

VIP: unrelated peptide used as specificity control (Figure 3)
displacement of [125I]RC-160 binding [2]: did not displace

[Tyr4]bombesin
inhibition/displacement of the binding of radioiodinated RC-160 [2]: none

bombesin
displacement of [125I]RC-160 binding [2]: did not displace

growth hormone-releasing hormone (GHRH): unrelated peptide used as specificity control
displacement of [125I]RC-160 binding [2]: did not displace | inhibition/displacement of the binding of radioiodinated RC-160 [2]: none

insulin-like growth factor I: unrelated peptide used as specificity control
inhibition/displacement of the binding of radioiodinated RC-160 [2]: none

luteinizing hormone-releasing hormone (LHRH): unrelated peptide used as specificity control
displacement of [125I]RC-160 binding [2]: did not displace | inhibition/displacement of the binding of radioiodinated RC-160 [2]: none

octreotide
affinity to SSTR-2 (SSTR-2): high affinity; also recorded: highest affinity | affinity to SSTR-3 (SSTR-3): approximately similar affinity | affinity to SSTR-5 (SSTR-5): high affinity; also recorded: approximately similar affinity | affinity to SSTR-1 (SSTR-1): lower binding affinity

pasireotide
affinity to SSTR-3 (SSTR-3): possesses an affinity | affinity to SSTR-5 (SSTR-5): possesses an affinity | affinity to SSTR-1 (SSTR-1): possesses an affinity
